# Tests used:
# Type in all cases: biochemical
# firefly luciferase [1] = target: T1, firefly luciferase (Photinus pyralis, UniProt P08659); assay: Quaternary ammonium/phosphonium detergent screen, firefly luciferase (Example 5); conditions: final conc. 0.10% detergent, Tergitol NP-9 present; for remaining activity at 0.1 %: read-out: Retained Firefly Luciferase Luminescence (%)
# Method: (§1) Each detergent was added at 0.2% to a reagent solution containing 50 mM Tricine pH 8.3, 3.5 mM MgSO4, 1 mM CDTA, 30 mM thiourea and 0.5% Tergitol NP-9. This solution or one not containing a detergent inhibitor was used to resuspend the Bright-Glo™ luciferin substrate (Promega).
# (§2) The luciferase reactions were initiated by adding 100 μl of the firefly luciferase or Renilla luciferase enzyme solutions to 100 μl of reagent solution. The reactions were performed as described above. […] The detergent concentrations listed refer to the final concentration in the reaction.
# firefly luciferase [2] = target: T1, firefly luciferase; assay: as above; conditions: final conc. 0.03% detergent, Tergitol NP-9 present; for remaining activity at 0.03 %: read-out: Retained Firefly Luciferase Luminescence (%)
# Renilla luciferase [3] = target: T2, Renilla luciferase (Renilla reniformis, UniProt P27652); assay: Quaternary ammonium/phosphonium detergent screen, Renilla luciferase (Example 5); conditions: final conc. 0.03% detergent; for remaining activity at 0.03 %: read-out: Retained Renilla Luciferase Luminescence (%)
# T2 sequence (P27652 1-311): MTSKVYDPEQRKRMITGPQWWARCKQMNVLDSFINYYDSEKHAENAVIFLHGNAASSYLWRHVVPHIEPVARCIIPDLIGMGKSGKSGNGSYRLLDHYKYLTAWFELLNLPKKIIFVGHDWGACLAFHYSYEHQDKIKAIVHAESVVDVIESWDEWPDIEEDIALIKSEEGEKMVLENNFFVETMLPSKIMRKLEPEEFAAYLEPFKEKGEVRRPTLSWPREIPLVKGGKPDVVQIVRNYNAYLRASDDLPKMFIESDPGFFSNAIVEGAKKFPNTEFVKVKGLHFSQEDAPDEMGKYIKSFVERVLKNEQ
# Renilla luciferase [4] = target: T2, Renilla luciferase; assay: as above; conditions: final conc. 0.10% detergent; for remaining activity at 0.1 %: read-out: Retained Renilla Luciferase Luminescence (%)
# Method: as §1, §2
# T1 sequence (P08659 whole entry): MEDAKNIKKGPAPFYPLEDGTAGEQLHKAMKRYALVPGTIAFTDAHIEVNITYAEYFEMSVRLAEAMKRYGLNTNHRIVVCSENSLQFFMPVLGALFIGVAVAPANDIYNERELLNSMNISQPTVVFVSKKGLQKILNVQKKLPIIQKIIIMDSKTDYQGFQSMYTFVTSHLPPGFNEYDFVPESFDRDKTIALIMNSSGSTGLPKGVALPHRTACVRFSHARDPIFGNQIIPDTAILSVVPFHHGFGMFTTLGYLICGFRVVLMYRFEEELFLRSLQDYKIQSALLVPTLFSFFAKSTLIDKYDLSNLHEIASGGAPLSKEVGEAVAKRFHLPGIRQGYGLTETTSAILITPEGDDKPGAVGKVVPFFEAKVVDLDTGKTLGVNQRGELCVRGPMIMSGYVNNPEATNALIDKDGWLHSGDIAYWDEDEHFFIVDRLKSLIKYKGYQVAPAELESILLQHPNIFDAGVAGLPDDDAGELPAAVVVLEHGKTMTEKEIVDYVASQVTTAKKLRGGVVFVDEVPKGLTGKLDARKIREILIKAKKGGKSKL
Compound,Retained Firefly Luciferase Luminescence (%) (firefly luciferase [1]),Retained Firefly Luciferase Luminescence (%) (firefly luciferase [2]),Selectivity Value (Renilla luciferase [3]),Retained Renilla Luciferase Luminescence (%) (Renilla luciferase [3]; Tergitol NP-9 present),Selectivity Value (Renilla luciferase [4]),Retained Renilla Luciferase Luminescence (%) (Renilla luciferase [4]; Tergitol NP-9 present),remaining activity at 0.1 % (firefly luciferase [1]) [%],remaining activity at 0.03 % (firefly luciferase [2]) [%],remaining activity at 0.03 % (Renilla luciferase [3]; Tergitol NP-9 present) [%],remaining activity at 0.1 % (Renilla luciferase [4]; Tergitol NP-9 present) [%]
"CC1(C)C=Cc2ccccc2[N+]1(C)C.[I-] [1,1,2,2-Tetramethyl-1,2-dihydor-quinolynium iodide]",74,87,1.0,88,1.2,89,–,–,–,–
CCCCCCCCCCCCCCCC[N+](C)(C)Cc1ccccc1.[Cl-] [Benzyldimethylhexadecylammonium chloride],–,–,2.1,–,32.2,–,97,100,47,3
CC=CC[P+](Cc1ccccc1)(c1ccccc1)c1ccccc1.[Br-] [Benzyl-but-2-enyl-diphenyl-phosphonium bromide],–,–,2.1,–,7.8,–,109,106,50,14
CC[N+](C)(C)c1cccc(O)c1 [Edrophonium chloride],–,–,1.0,–,1.1,–,102,98,93,89
CCCC[P+](CCCC)(CCCC)Cc1ccc(C)cc1.[Cl-] [(4-Methylbenzyl)tributylphosphonium chloride],–,–,1.5,–,3.3,–,106,99,65,32
C=C(C)[P+](C)(c1ccccc1)c1ccccc1.[I-] [Isopropenylmethyldiphenylphosphonium iodide],–,–,1.2,–,2.1,–,109,95,82,51
CC[P+](CC)(CC)Cc1ccccc1.[Br-] [Benzyltriethylphosphonium bromide],–,–,1.1,–,2.0,–,102,97,88,51
